Assay results: ChEMBL document CHEMBL4507291 (2021)

Experiments:
[1] = biological target: T1, Activin receptor type-1B (Homo sapiens) (UniProt P36896)
T1 sequence (whole entry): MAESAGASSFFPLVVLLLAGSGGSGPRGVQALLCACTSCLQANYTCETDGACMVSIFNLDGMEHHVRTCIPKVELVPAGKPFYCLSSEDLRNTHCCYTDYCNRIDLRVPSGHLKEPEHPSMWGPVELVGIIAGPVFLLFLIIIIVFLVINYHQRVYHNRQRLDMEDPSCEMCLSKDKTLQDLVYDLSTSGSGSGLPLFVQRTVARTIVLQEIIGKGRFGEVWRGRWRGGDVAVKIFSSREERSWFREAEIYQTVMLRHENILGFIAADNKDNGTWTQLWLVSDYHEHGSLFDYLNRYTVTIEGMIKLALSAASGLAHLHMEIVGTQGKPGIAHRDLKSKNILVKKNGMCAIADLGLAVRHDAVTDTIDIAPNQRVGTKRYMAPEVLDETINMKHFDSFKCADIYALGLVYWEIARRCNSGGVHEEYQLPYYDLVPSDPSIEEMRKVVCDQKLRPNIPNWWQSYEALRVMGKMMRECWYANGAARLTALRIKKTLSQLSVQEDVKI

[2] = biological target: T2, NUAK family SNF1-like kinase 1 (Homo sapiens) (UniProt O60285)
T2 sequence (whole entry): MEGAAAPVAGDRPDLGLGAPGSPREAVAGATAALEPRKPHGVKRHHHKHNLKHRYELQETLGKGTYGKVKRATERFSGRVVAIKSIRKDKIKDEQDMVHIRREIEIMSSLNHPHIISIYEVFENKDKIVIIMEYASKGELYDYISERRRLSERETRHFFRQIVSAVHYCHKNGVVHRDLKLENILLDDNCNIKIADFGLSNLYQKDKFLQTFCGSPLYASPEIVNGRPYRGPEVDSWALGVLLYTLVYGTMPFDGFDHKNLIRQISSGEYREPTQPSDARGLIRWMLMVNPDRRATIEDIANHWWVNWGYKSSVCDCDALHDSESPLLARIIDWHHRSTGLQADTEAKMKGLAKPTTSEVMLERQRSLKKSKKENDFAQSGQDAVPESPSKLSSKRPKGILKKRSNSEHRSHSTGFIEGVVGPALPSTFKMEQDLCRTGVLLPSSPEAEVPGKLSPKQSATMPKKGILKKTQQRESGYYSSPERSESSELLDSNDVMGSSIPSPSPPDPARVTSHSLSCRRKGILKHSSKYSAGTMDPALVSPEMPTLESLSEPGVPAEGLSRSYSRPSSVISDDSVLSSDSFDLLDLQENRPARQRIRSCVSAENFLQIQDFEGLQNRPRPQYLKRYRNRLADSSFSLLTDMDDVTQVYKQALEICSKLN

[3] = biological target: Calcium/calmodulin-dependent protein kinase type II subunit beta (Homo sapiens) (UniProt Q13554)
Chain of Calcium/calmodulin-dependent protein kinase type II subunit beta (Homo sapiens) (Q13554 whole entry): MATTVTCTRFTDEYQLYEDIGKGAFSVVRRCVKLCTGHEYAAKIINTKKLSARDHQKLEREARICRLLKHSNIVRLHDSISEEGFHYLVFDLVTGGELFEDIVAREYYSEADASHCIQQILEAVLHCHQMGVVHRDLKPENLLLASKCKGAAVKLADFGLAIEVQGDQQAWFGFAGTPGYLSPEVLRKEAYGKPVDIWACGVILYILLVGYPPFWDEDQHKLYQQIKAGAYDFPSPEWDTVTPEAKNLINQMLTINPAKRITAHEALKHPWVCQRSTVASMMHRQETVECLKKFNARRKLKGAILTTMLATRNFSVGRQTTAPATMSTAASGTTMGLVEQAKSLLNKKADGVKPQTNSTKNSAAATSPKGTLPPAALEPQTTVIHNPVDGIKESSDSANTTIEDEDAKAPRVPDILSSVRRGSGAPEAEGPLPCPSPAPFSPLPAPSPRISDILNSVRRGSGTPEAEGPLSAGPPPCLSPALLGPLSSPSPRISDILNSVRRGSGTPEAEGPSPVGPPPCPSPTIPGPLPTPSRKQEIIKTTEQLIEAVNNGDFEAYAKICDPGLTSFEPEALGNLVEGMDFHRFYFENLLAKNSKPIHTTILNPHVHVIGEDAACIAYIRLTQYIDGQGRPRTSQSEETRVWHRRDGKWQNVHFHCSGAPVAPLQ

[4] = biological target: Cyclin-dependent kinase 19 (Homo sapiens) (UniProt Q9BWU1)
Chain of Cyclin-dependent kinase 19 (Homo sapiens) (Q9BWU1 whole entry): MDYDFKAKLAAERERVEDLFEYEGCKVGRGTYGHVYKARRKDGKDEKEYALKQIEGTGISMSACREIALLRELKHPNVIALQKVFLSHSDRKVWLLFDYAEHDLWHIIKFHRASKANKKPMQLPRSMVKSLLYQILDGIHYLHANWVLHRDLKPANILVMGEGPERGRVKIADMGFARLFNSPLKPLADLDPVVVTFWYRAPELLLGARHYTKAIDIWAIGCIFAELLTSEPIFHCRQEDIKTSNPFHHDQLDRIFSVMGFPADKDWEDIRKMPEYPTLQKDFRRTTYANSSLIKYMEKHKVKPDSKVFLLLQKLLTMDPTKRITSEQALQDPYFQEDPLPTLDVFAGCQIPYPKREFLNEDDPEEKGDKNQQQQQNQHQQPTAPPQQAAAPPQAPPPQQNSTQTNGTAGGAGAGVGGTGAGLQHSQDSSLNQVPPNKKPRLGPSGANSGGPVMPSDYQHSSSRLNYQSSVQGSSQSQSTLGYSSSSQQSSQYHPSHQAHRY

[5] = biological target: Dual specificity protein kinase CLK3 (Homo sapiens) (UniProt P49761)
[6] = biological target: Serine/threonine-protein kinase PLK3 (Homo sapiens) (UniProt Q9H4B4)
[7] = biological target: Ribosomal protein S6 kinase alpha-1 (Homo sapiens) (UniProt Q15418)
Chain of Ribosomal protein S6 kinase alpha-1 (Homo sapiens) (Q15418 whole entry): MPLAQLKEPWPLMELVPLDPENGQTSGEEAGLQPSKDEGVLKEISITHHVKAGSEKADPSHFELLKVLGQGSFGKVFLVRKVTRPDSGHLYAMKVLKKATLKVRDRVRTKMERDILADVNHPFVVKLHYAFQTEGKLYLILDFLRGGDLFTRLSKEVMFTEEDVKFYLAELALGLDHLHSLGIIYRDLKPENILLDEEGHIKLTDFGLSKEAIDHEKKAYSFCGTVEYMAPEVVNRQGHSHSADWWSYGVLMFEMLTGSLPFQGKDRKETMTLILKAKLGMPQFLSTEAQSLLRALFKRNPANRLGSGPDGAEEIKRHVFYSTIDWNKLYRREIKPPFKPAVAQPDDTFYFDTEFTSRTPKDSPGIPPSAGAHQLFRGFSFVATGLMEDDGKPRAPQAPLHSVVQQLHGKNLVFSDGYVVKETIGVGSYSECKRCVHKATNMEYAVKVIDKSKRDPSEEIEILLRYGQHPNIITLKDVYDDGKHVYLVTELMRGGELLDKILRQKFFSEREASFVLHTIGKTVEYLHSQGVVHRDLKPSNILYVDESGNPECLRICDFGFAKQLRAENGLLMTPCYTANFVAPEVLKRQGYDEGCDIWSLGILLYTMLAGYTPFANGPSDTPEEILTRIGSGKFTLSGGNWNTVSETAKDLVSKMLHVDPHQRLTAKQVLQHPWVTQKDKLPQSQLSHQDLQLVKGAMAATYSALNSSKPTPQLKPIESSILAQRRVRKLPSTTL

[8] = biological target: Ribosomal protein S6 kinase alpha-3 (Homo sapiens) (UniProt P51812)
Chain of Ribosomal protein S6 kinase alpha-3 (Homo sapiens) (P51812 whole entry): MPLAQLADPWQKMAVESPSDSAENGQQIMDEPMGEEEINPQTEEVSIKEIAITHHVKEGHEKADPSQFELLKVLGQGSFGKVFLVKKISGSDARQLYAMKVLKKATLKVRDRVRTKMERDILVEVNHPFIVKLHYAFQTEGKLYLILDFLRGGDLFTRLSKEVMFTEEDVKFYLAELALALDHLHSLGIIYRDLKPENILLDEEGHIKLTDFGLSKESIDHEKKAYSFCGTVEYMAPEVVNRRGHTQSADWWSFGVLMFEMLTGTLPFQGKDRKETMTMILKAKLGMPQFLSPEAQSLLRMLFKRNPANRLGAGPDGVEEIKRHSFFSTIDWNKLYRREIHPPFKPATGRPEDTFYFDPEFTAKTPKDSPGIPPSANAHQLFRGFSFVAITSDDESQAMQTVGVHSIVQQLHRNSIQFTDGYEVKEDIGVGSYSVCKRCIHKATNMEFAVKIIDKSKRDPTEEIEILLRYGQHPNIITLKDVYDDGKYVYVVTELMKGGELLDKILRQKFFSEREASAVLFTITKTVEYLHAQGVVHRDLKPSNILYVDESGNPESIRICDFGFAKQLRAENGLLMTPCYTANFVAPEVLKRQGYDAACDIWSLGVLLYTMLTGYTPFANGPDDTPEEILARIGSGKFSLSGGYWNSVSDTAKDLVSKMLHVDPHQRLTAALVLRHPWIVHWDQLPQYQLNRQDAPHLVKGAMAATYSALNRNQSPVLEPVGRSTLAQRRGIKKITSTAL

[9] = biological target: T3, Serine/threonine-protein kinase Sgk2 (Homo sapiens) (UniProt Q9HBY8)
T3 sequence (whole entry): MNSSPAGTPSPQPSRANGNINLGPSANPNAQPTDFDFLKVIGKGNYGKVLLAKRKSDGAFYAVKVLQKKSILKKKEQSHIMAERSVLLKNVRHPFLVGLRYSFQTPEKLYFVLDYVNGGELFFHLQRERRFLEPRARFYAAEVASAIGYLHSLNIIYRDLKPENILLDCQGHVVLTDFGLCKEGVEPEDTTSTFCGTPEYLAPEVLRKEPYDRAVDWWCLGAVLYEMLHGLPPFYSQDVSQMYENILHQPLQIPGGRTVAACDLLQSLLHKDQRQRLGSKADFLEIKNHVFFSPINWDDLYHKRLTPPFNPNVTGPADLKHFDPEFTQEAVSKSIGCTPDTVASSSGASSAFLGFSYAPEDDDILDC

[10] = biological target: Serine/threonine-protein kinase SIK1 (Homo sapiens) (UniProt P57059)
Chain of Serine/threonine-protein kinase SIK1 (Homo sapiens) (P57059 whole entry): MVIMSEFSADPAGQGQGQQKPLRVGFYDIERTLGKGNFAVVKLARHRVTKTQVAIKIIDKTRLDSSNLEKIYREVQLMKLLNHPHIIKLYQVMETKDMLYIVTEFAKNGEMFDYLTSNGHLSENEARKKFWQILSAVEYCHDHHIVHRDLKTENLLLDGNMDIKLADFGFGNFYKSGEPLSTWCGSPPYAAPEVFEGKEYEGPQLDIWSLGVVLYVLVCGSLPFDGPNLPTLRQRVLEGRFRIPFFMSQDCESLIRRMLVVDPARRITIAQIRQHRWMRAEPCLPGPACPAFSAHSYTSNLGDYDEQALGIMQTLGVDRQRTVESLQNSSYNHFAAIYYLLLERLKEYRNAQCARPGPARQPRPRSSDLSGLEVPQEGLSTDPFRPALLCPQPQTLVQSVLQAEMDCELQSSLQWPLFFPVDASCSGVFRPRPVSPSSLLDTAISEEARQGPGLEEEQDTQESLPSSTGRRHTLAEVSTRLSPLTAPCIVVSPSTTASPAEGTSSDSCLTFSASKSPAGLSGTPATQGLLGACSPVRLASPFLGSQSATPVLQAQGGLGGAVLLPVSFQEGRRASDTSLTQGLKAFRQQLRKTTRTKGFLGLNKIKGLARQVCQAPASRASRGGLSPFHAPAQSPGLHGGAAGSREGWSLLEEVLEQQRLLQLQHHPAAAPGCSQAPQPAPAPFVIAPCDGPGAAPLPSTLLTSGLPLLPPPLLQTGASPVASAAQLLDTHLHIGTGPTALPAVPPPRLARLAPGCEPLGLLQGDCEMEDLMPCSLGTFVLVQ

[11] = biological target: Serine/threonine-protein kinase SIK2 (Homo sapiens) (UniProt Q9H0K1)
Chain of Serine/threonine-protein kinase SIK2 (Homo sapiens) (Q9H0K1 whole entry, looked up): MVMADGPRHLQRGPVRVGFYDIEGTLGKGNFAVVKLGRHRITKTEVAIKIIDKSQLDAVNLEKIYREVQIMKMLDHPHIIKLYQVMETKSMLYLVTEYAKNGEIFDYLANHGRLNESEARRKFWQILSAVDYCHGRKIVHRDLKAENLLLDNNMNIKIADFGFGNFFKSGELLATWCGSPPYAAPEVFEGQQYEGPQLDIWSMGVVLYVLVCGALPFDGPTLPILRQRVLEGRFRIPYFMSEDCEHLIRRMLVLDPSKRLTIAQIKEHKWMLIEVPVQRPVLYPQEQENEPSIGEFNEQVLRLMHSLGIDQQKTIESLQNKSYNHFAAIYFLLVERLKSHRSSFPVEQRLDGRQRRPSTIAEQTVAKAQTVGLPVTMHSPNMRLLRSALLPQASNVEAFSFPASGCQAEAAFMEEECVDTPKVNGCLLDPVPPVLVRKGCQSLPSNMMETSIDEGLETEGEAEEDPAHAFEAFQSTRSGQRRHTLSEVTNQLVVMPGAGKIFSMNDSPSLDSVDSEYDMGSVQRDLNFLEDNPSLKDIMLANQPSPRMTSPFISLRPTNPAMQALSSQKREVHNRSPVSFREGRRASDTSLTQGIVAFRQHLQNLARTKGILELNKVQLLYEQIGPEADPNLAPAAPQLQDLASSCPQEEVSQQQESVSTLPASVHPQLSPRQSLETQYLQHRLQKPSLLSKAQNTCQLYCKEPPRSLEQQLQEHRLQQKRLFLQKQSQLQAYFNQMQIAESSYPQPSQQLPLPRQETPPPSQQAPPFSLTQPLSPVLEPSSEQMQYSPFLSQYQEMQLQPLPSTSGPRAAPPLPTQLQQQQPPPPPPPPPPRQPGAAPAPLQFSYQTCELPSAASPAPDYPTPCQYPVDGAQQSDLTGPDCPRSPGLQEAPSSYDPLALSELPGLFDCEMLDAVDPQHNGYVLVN

[12] = biological target: STE20/SPS1-related proline-alanine-rich protein kinase (Homo sapiens) (UniProt Q9UEW8)
[13] = biological target: T4, 5-hydroxytryptamine receptor 3A (Homo sapiens) (UniProt P46098); settings: Compound concentration 10.0 uM
T4 sequence (whole entry): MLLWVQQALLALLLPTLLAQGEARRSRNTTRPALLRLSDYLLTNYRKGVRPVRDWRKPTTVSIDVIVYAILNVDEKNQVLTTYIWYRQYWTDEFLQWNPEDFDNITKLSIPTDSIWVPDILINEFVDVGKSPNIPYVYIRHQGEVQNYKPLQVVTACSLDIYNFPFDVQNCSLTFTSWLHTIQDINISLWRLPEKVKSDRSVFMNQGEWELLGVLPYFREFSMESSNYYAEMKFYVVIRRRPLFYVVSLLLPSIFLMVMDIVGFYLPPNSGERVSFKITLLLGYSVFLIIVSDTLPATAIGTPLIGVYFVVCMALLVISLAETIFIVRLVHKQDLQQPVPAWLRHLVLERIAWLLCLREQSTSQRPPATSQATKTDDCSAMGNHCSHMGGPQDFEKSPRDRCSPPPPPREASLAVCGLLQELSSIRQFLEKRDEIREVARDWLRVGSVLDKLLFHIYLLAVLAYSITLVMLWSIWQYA

[14] = biological target: Kappa-type opioid receptor (Homo sapiens) (UniProt P41145); settings: Compound concentration 10.0 uM
Chain of Kappa-type opioid receptor (Homo sapiens) (P41145 whole entry): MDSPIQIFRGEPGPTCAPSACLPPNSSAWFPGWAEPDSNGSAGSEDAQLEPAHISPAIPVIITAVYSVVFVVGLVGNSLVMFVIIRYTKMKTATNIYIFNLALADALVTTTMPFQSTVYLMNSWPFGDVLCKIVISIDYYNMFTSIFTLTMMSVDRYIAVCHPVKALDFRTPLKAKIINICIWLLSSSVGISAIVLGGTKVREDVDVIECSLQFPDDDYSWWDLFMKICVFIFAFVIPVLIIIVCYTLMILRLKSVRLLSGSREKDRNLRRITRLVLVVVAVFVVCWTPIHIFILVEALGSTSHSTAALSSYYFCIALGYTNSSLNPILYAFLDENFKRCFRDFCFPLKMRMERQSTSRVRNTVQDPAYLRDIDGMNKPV

[15] = Compound concentration 1000.0 nM
[16] = Compound concentration 100.0 nM

C[C@@H]1CN(c2cc(-c3nn(C)c4ccc(OC5(C)CC5)cc34)ncn2)C[C@H](C)O1 [MLi-2-NC]
inactive: residual activity [1, 15] 78% | residual activity [2, 15] 100% | residual activity [3, 15] 96% | residual activity [4, 15] 92% | residual activity [5, 15] 98% | residual activity [6, 15] 84% | residual activity [7, 15] 100% | residual activity [8, 15] 82% | residual activity [9, 15] 58% | residual activity [10, 15] 96% | residual activity [11, 15] 100% | residual activity [12, 15] 70% | inhibition [13] -3.11% | inhibition [14] 13.1%

C[C@@H]1CN(c2cc(-c3n[nH]c4ccc(OC5(C)CC5)cc34)ncn2)C[C@H](C)O1 [MLi-2]
inactive: residual activity [1, 16] 90% | residual activity [2, 16] 92% | residual activity [3, 16] 100% | residual activity [4, 16] 70% | residual activity [5, 16] 94% | residual activity [6, 16] 84% | residual activity [7, 16] 97% | residual activity [8, 16] 73% | residual activity [9, 16] 84% | residual activity [10, 16] 100% | residual activity [11, 16] 87% | residual activity [12, 16] 85% | inhibition [13] 4.35% | inhibition [14] -0.6%
